Laboratory results published in patent publication US10106508B2, “Quinazoline heterocyclic compound as EGFR kinase inhibitor and preparation and application thereof” (BEIJING SCITECH-MQ PHARMACEUTICALS LIMITED, priority 2015, dated 2018).

Columns and labels:
[1] = target: EGFR (T790M) (Homo sapiens (Human), UniProt P00533, T790M); test: Kinase-Glo luminescent kinase assay, EGFR tyrosine kinase inhibitory activity (T790M); assay type: biochemical
Experimental: (§1) Determination of the Compound Inhibitory Activity Against EGFR Kinase
(§2) The inhibitory activity of compounds in formula (I) and (II) were determined using Kinase-Glo luminescent kinase assay. The receptor tyrosine kinase EGFR was tested and Gefitinib, a known EGFR inhibitor, was chosen as the positive control compound. The method is detailed below:
(§3) The sample compounds were dissolved in DMSO and diluted it to 500 μM concentration with DMSO and transferred to a dose plate. The compounds were serially diluted with DMSO in 5 fold concentration. Then each concentration was diluted 10-fold with the reaction buffer to get a 10× final concentration. Transfer the compounds with concentrations ranging from 0.003 μM to 50 μM to EGFR assay plate to determine their kinase activity with a dose of 1 μL/well.
(§4) The positive control compound Gifitinib was dissolved in DMSO as 10 mM stock solution and diluted it to 100 μM concentration with DMSO. The control compound was serially diluted with DMSO in 5 fold concentration. Then each concentration was diluted 10-fold with the reaction buffer to get a 10× final concentration.
(§5) For the HPE (hundred percent effect: No kinase and no compound, but containing ATP, substrate and 1% DMSO) and ZPE (zero percent effect: No compound but containing kinase, ATP, substrate and 1% DMSO) wells, dilute 2 μL DMSO 10-fold with reaction buffer to obtain 10% DMSO solution. Then transfer it to the assay plat, 1 μL/well. The positive control wells contain kinase, ATP, substrate and positive control compound in different concentrations. The sample compound wells contain kinase, ATP, substrate and the compounds to be tested in different concentrations.
(§6) Preparation of the reagents in need: 4×ATP: dilute ATP 4 times with assay buffer to obtain a working solution; 4× substrate: dilute Poly ([…]: tyrosine) 4 times with assay buffer to obtain a working solution; 2.5×EGFR kinase: dilute EGFR kinase 2.5 times with assay buffer to obtain a working solution.
(§7) Kinase reaction: Add 10× compounds to the assay plate in a 384-well plate layout, 1 μL/well. For the HPE and ZPE wells, equal volume (1 μL/well) of 10% DMSO was added to the 384-well assay plate; Add 2.5×EGFR kinase into the assay plate in 384-well plate layout, 4 μL/well. For HPE and ZPE wells, an equal volume (4 μL/well) of assay buffer was added to the 384-well assay plate; Centrifuge the assay plate with 1000 rpm for 1 min to mix them; Pre-incubate the assay plate for 30 min at 30° C.; Mix equal volume of 4×ATP and 4× substrate to obtain 2×ATP-substrate mixture which serves as a reaction mixture for the determination of EGFR activity; Add 2×ATP-substrate mixture to the assay plate, 5 μL/well; Centrifuge the assay plate at 1000 rpm for 1 min to mix them; Incubate the assay plate for one hour at 30° C.; Add Kinase glo plus was to each well (10 μL/well), and then incubated the assay plate for 20 min at 27° C.; Read luminescence signal with Envision plate reader.

[2] = target: EGFR (WT) (Homo sapiens (Human), UniProt P00533); test: Kinase-Glo luminescent kinase assay, EGFR tyrosine kinase inhibitory activity (WT); assay type: biochemical; conditions: EGFR wild type
Experimental: as §1, §2, §3, §4, §5, §6, §7

EGFR (WT), sequence (P00533 25-1210): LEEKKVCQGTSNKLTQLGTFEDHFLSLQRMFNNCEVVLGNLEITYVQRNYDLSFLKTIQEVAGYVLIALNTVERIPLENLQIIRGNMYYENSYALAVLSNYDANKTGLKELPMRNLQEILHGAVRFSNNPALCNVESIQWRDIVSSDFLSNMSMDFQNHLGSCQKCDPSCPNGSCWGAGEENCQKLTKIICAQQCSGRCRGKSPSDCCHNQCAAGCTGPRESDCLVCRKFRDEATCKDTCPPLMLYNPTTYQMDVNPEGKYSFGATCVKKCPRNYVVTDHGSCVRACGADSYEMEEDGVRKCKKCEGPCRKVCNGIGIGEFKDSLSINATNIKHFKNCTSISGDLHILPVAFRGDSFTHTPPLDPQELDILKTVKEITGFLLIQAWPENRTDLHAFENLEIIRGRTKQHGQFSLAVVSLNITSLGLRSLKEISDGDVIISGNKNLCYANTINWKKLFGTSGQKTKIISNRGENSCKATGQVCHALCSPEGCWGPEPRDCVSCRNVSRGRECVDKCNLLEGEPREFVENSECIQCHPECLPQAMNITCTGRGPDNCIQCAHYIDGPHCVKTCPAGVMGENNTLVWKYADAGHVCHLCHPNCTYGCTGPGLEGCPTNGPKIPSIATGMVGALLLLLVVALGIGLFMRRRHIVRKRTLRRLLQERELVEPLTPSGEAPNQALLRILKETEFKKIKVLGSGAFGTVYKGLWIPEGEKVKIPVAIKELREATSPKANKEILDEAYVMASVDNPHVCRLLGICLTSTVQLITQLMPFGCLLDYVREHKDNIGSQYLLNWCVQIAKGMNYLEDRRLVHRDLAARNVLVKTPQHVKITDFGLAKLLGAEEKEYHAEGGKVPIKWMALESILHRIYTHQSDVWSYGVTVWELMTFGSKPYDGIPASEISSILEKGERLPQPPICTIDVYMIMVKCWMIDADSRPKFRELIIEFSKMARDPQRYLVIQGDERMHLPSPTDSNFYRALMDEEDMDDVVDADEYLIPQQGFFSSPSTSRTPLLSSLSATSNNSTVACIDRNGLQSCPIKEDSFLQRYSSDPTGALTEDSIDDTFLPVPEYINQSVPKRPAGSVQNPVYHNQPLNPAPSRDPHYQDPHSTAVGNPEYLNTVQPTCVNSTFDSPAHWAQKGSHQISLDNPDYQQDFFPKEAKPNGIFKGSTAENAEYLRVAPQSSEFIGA
EGFR (T790M), sequence (P00533 25-1210 T790M): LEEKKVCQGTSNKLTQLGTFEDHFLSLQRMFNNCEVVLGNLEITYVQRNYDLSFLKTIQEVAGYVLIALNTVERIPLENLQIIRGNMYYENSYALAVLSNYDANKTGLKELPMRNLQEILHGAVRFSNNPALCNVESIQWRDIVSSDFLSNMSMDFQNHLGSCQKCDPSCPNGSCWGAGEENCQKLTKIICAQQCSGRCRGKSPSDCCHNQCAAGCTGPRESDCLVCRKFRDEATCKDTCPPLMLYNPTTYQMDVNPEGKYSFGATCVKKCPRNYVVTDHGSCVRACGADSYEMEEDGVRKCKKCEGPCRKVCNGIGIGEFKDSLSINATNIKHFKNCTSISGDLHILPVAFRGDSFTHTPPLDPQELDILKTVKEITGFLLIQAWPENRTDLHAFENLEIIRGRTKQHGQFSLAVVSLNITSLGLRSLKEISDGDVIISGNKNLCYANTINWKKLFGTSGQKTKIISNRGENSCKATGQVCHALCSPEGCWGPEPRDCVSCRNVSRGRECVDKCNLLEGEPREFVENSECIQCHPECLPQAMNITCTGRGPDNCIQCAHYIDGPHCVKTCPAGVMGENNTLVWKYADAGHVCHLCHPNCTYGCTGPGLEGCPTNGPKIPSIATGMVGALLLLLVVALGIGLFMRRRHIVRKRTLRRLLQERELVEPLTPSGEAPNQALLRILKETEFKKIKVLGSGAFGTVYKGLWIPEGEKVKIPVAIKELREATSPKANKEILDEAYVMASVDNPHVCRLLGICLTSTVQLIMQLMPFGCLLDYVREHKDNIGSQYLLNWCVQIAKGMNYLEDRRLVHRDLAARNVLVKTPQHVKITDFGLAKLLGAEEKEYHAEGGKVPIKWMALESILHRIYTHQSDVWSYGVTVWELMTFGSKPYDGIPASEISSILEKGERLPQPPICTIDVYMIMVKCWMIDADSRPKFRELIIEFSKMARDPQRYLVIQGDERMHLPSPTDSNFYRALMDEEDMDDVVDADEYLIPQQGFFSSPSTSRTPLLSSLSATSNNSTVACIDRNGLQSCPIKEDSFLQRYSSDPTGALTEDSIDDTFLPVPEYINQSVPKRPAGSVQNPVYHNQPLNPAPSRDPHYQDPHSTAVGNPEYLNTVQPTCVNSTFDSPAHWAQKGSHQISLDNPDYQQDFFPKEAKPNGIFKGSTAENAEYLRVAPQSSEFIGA

SMILES | IC50 [1] | IC50 [2]
CCOc1cc2ncnc(Nc3cccc([N+](=O)[O-])c3)c2c2c1OCCO2 [Compound I-38, 5-Ethoxy-N-(3-nitrophenyl)-2,3-dihydro-[1,4]dioxino[2,3-f]quinazolin-10-amine] | < 50 nM | < 50 nM
CCOC(C)Oc1cc2ncnc(Nc3ccc(OC)c([N+](=O)[O-])c3)c2c2c1OCCO2 (centres unmarked) [Compound I-15, 5-(1-Ethoxyethoxy)-N-(4-methoxy-3-nitrophenyl)-2,3-dihydro-[1,4]dioxino[2,3-f]quinazolin-10-amine] | < 1000 nM | < 1000 nM
CCOC(C)Oc1cc2ncnc(Nc3ccc(C)c(C#N)c3)c2c2c1OCCO2 (centres unmarked) [Compound I-20, 5-((5-(1-Ethoxyethoxy)-2,3-dihydro-[1,4]dioxino[2,3-f]quinazolin-10-yl)amino)-2-methylbenzonitrile] | < 1000 nM | < 1000 nM
COCCOc1cc2ncnc(Nc3ccc(F)cc3)c2c2c1OCCO2 [Compound I-32, N-(4-fluorophenyl)-5-(2-methoxyethoxy)-2,3-dihydro-[1,4]dioxino[2,3-f]quinazolin-10-amine] | < 1000 nM | < 200 nM
CC(C)Oc1cc2ncnc(Nc3ccc(Cl)c([N+](=O)[O-])c3)c2c2c1OCCO2 [Compound I-4, N-(4-Chloro-3-nitrophenyl)-5-isopropoxy-2,3-dihydro-[1,4]dioxino[2,3-f]quinazolin-10-amine] | < 1000 nM | < 100 nM
COCCOc1cc2ncnc(Nc3ccc(F)c(C#N)c3)c2c2c1OCCO2 [Compound I-13, 2-Fluoro-5-((5-(2-methoxyethoxy)-2,3-dihydro-[1,4]dioxino[2,3-f]quinazolin-10-yl)amino)benzonitrile] | < 1000 nM | < 500 nM
COCCOc1cc2ncnc(Nc3ccc(OC)c([N+](=O)[O-])c3)c2c2c1OCCO2 [Compound I-9, N-(4-Methoxy-3-nitrophenyl)-5-(2-methoxyethoxy)-2,3-dihydro-[1,4]dioxino[2,3-f]quinazolin-10-amine] | < 1000 nM | < 1000 nM
C#Cc1cccc(Nc2ncnc3cc(OC)c4c(c23)OCCO4)c1 [Compound I-28, N-(3-Ethynylphenyl)-5-methoxy-2,3-dihydro-[1,4]dioxino[2,3-f]quinazolin-10-amine] | < 1000 nM | < 50 nM
Cc1ccc(Nc2ncnc3cc(OC(C)C)c4c(c23)OCCO4)cc1C#N [Compound I-6, 5-((5-Isopropoxy-2,3-dihydro-[1,4]dioxino[2,3-f]quinazolin-10-yl)amino)-2-methylbenzonitrile] | < 1000 nM | < 400 nM
COc1ccc(Nc2ncnc3cc4c(cc23)N(CCCN2CCOCC2)C(=O)CO4)cc1OC [II-5, 4-((3,4-Dimethoxyphenyl)amino)-6-(3-morpholinopropyl)-6H-[1,4]oxazino[3,2-g]quinazolin-7(8H)-one] | < 1000 nM | < 200 nM
CCOC(C)Oc1cc2ncnc(Nc3ccc(Cl)c([N+](=O)[O-])c3)c2c2c1OCCO2 (centres unmarked) [Compound I-17, N-(4-Chloro-3-nitrophenyl)-5-(1-ethoxyethoxy)-2,3-dihydro-[1,4]dioxino[2,3-f]quinazolin-10-amine] | < 1000 nM | < 300 nM
C#Cc1cccc(Nc2ncnc3cc(OCCOC)c4c(c23)OCCO4)c1 [Compound I-31, N-(3-Ethynylphenyl)-5-(2-methoxyethoxy)-2,3-dihydro-[1,4]dioxino[2,3-f]quinazolin-10-amine] | < 50 nM | < 50 nM
CC(C)Oc1cc2ncnc(Nc3ccc(F)c([N+](=O)[O-])c3)c2c2c1OCCO2 [Compound I-2, N-(4-Fluoro-3-nitrophenyl)-5-isopropoxy-2,3-dihydro-[1,4]dioxino[2,3-f]quinazolin-10-amine] | < 1000 nM | < 100 nM
COCCOc1cc2ncnc(Nc3ccc(C)c(C#N)c3)c2c2c1OCCO2 [Compound I-14, 5-((5-(2-Methoxyethoxy)-2,3-dihydro-[1,4]dioxino[2,3-f]quinazolin-10-yl)amino)-2-methylbenzonitrile] | < 1000 nM | < 1000 nM
Fc1ccc(Nc2ncnc3cc(OCC4CCCO4)c4c(c23)OCCO4)cc1Cl (centres unmarked) [Compound I-40, N-(3-Chloro-4-fluorophenyl)-5-((tetrahydrofuran-2-yl)methoxy)-2,3-dihydro-[1,4]dioxino[2,3-f]quinazolin-10-amine] | < 1000 nM | < 50 nM
Cc1ccc(Nc2ncnc3cc4c(cc23)N(CCCN2CCOCC2)C(=O)CO4)cc1Cl [II-3, 4-((3-Chloro-4-methylphenyl)amino)-6-(3-morpholinopropyl)[1,4]oxazino[3,2-g]quinazolin-7(8H)-one] | < 1000 nM | < 200 nM
COc1cc2ncnc(Nc3ccc(F)c(Cl)c3)c2c2c1OCCO2 [Compound I-29, N-(3-Chloro-4-fluorophenyl)-5-methoxy-2,3-dihydro-[1,4]dioxino[2,3-f]quinazolin-10-amine] | < 1000 nM | < 50 nM
CC(C)Oc1cc2ncnc(Nc3ccc(F)c(C#N)c3)c2c2c1OCCO2 [Compound I-5, 2-Fluoro-5-((5-isopropoxy-2,3-dihydro-[1,4]dioxino[2,3-f]quinazolin-10-yl)amino)benzonitrile] | < 1000 nM | < 300 nM
C#Cc1cccc(Nc2ncnc3cc(OC(C)COC)c4c(c23)OCCO4)c1 (centres unmarked) [Compound I-26, N-(3-Ethynylphenyl)-5-(1-methoxypropan-2-yloxy)-2,3-dihydro-[1,4]dioxino[2,3-f]quinazolin-10-amine] | < 300 nM | < 100 nM
CCOC(C)Oc1cc2ncnc(Nc3ccc(C)c([N+](=O)[O-])c3)c2c2c1OCCO2 (centres unmarked) [Compound I-18, 5-(1-Ethoxyethoxy)-N-(4-methyl-3-nitrophenyl)-2,3-dihydro-[1,4]dioxino[2,3-f]quinazolin-10-amine] | < 1000 nM | < 300 nM
CC(C)Oc1cc2ncnc(Nc3ccc(OCc4cccc(F)c4)c(Cl)c3)c2c2c1OCCO2 [Compound I-27, N-(3-Chloro-4-((3-fluorobenzyl)oxy)phenyl)-5-isopropoxy-2,3-dihydro-[1,4]dioxino[2,3-f]quinazolin-10-amine] | < 1000 nM | < 200 nM
CCOC(C)Oc1cc2ncnc(Nc3ccc(F)c(C#N)c3)c2c2c1OCCO2 (centres unmarked) [Compound I-19, 5-((5-(1-Ethoxyethoxy)-2,3-dihydro-[1,4]dioxino[2,3-f]quinazolin-10-yl)amino)-2-fluoro-benzonitrile] | < 1000 nM | < 300 nM
COc1cccc(Nc2ncnc3cc4c(cc23)N(CCCN2CCOCC2)C(=O)CO4)c1 [II-4, 4-((3-Methoxyphenyl)amino)-6-(3-morpholinopropyl)-6H-[1,4]oxazino[3,2-g]quinazolin-7(8H)-one] | < 1000 nM | < 200 nM
COCCOc1cc2ncnc(Nc3ccc(C)c([N+](=O)[O-])c3)c2c2c1OCCO2 [Compound I-11, 5-(2-Methoxyethoxy)-N-(4-methyl-3-nitrophenyl)-2,3-dihydro-[1,4]dioxino[2,3-f]quinazolin-10-amine] | < 1000 nM | < 100 nM
COCCOc1cc2ncnc(Nc3ccc(Cl)c([N+](=O)[O-])c3)c2c2c1OCCO2 [Compound I-12, N-(4-Chloro-3-nitrophenyl)-5-(2-methoxyethoxy)-2,3-dihydro-[1,4]dioxino[2,3-f]quinazolin-10-amine] | < 1000 nM | < 50 nM
